Patent US20060160773A1, “Combretastatin derivatives with cytotoxic action” (priority 2003, published 2006)

Assays:
[1] = Evaluation of cardiovascular parameters (blood pressure, heart rate) in anaesthetised rats; type: in vivo; details: 20 or 40 mg/kg injected in the jugular vein, anaesthetised Wistar rats (FIG. 1)
Method: Combretastatin A4, its prodrug ST2494 and our water soluble selected compounds ST2495 and ST2496, diluted at the doses of 20 or 40 mg/kg in saline solution or for combretastatin A4 in 5% DMSO, were injected in the jugular vein of Wistar rats anaesthetised with 55 mg/kg Nembutal. The parameter considered were blood pressure and heart rate.

cell growth = details: background statement; cited from earlier work
[2] = system: NCI-H460 human lung cancer; assay: Cytotoxicity test (sulforodamine B), NCI-H460; type: cell-based; details: Homo sapiens, NCI-H460, read-out: IC50 ± SE
Method: (§1) The cytotoxic effect of our derivatives was evaluated in series of human and murine cell lines.
(§2) The following cell lines, purchased from ATCC, were cultured according to the manufacturer's instructions: MeWo human melanoma, NCI-H460 human lung cancer, LoVo human colon adenocarcinoma, PC3 human prostate carcinoma, MES-SA human uterine sarcoma, HCT 116 human colorectal carcinoma, MCF-7 human breast carcinoma.
(§3) For the cytotoxicity test the cells were seeded at variable densities according to cell type in 96-well plates in normal culture medium (200 μl/well) and incubated for 24 hours at 37° C. On the next day, the study substances were added at scalar concentrations and the cells were incubated for a further 24 hours at 37° C. in a humidified atmosphere containing 5% CO2. At the end of the incubation period the medium containing the substances was removed and three washings with PBS were performed. At the end of the washings 200 μl/well of fresh medium were added and the plates were incubated at 37° C. for a further 48 hours. At the end of this incubation period the culture medium was removed by overturning the plates and 200 μl/well of PBS and 50 μl of 80% cold trichloroacetic acid (TCA) were added. The plates were then incubated in ice. After 1 h the TCA was removed, the plates were washed three times by immersion in distilled water and dried first on blotting paper and then in the oven. 200 μl of 0.4% sulforodamine B in 1% acetic acid were then added to all wells. The plates were incubated at room temperature for a further 30 minutes. The sulforodamine B was removed by overturning, the plates were washed three times by immersion in 1% acetic acid, and then dried first on blotting paper and then in the oven. 200 μl of Tris base 10 mM were then added to all wells and the plates were placed under stirring for at least 20 min. The optical density was measured by spectrophotometric readout at 540 nm.
(§4) In the same table are reported the IC50 of ST2897, ST2898 and ST2899 on BMEC.

[3] = system: tubulin rich in microtubule-associated proteins (MAP); assay: Tubulin polymerisation inhibition test; type: biochemical; details: vs not treated control; mean of 3 independent determinations; concentration not given
Method: The tubulin polymerisation test in the presence of ST2151 was performed as described by Shiff et al. (Biochemistry, 1981, 20: 3247-3252) with a number of modifications. In brief, tubulin rich in microtubule-associated proteins (MAP) was diluted to the concentration of 3 mg/ml in PEM buffer [100 mM PIPES (pH 6.9), 1 mM EGTA and 1 mM MgCl2] containing 1 mM GTP (GPEM), and maintained in ice. The solution was placed at 37° C. and polymerisation was monitored by measuring absorbance at 340 nm every 25 seconds with a spectrophotometer equipped with an electronic temperature control device (Cobas-Mira Analyzer). After 5 minutes, when the polymerised tubulin had reached a steady state, 5 μM Taxol, 1.35 μM Colcemid, or ST2151 were added and the absorbance measurements were taken for a further 15 min. The IC50 values were determined by non-linear regression analysis using “Prism GraphPad” software. Results were expressed as % inhibition of tubulin polymerization vs not treated control.
The value indicated in Table 2 is the mean of 3 independent determinations.

[4] = system: EA-hy926, an immortalised hybridoma of HUVEC and adenocarcinoma cells; assay: Cytotoxicity test (sulforodamine B), EA-hy926; type: cell-based; details: Homo sapiens, EA.hy 926; EAHY.926; 24 h exposure, 48 h recovery, SRB
Method: as §1
(§5) Bovine microcirculatory endothelial cells (BMEC), isolated from bovine adrenal glands, were maintained in culture in DMEM containing 20% FBS, 50 μg/ml of bovine brain extract (BBE), 50 units/ml of heparin (SIGMA), 100 units/ml of gentami-cin (SIGMA) and 10 mg/ml of L-glutamine (Hyclone). EA-hy926, an immortalised hybridoma of HUVEC and adenocarcinoma cells, obtained from the University of Bari Department of Biomedical Sciences and Human Oncology, was cultured in DMEM added with 10% FBS and gentamicin.
(§6) For the cytotoxicity test the cells were seeded at variable densities according to cell type in 96-well plates in normal culture medium (200 μl/well) and incubated for 24 hours at 37° C. On the next day, the study substances were added at scalar concentrations and the cells were incubated for a further 24 hours at 37° C. in a humidified atmosphere containing 5% CO2. At the end of the incubation period the medium containing the substances was removed and three washings with PBS were performed. At the end of the washings 200 μl/well of fresh medium were added and the plates were incubated at 37° C. for a further 48 hours. […] The optical density was measured by spectrophotometric readout at 540 nm. […]

[5] = system: A2780 human ovarian carcinoma line; assay: Cytotoxicity test (sulforodamine B), A2780; type: cell-based; details: Homo sapiens, A2780, read-out: IC50 ± SE
Method: as §1
(§7) The M109 murine lung cancer line, the HT29 human colon adenocarcinoma line, the A2780 human ovarian carcinoma line, obtained from the Milan Tumour Institute, were cultured in RPMI containing 10% FBS and antibiotics.
as §3, §4

[6] = system: Human umbilical vein endothelial cells (HUVEC); assay: Cytotoxicity test (sulforodamine B), HUVEC; type: cell-based; details: Homo sapiens, read-out: IC50 ± SE
Method: as §1
Human umbilical vein endothelial cells (HUVEC), from the BioWhittaker company, were maintained in EGM-2 culture medium (BioWhittaker).
as §3, §4

[7] = system: HT29 human colon adenocarcinoma line; assay: Cytotoxicity test (sulforodamine B), HT29; type: cell-based; details: Homo sapiens, HT-29, read-out: IC50 ± SE
Method: as §1, §7, §3, §4

[8] = system: B16/BL6 murine melanoma line; assay: Cytotoxicity test (sulforodamine B), B16/BL6; type: cell-based; details: Mus musculus, B16-BL6, read-out: IC50 ± SE
Method: as §1
The B16/BL6 murine melanoma line, obtained from the M. Negri Institute in Milan, was cultured in DMEM containing 10% FBS and antibiotics.
as §3, §4

[9] = system: Bovine microcirculatory endothelial cells (BMEC); assay: Cytotoxicity test (sulforodamine B), BMEC; type: cell-based; details: Bos taurus, Endothelial cell, read-out: IC50 ± SE
Method: as §1, §5, §3, §4

[10] = system: PC3 human prostate carcinoma; assay: Cytotoxicity test (sulforodamine B), PC3; type: cell-based; details: 24 h exposure, 48 h recovery, SRB
Method: as §1, §2
as §6, with “hours. At the end of this incubation period the culture medium was removed by overturning the plates and 200 μl/well of PBS and 50 μl of 80% cold trichloroacetic acid (TCA) were added. The plates were then incubated in ice.” for “hours.”

[11] = system: M109 murine lung cancer line; assay: Cytotoxicity test (sulforodamine B), M109; type: cell-based; details: Mus musculus, 24 h exposure, 48 h recovery, SRB
Method: as §1, §7
as §3, with “200 μl of 0.4% sulforodamine B in 1% acetic acid were then added to all wells. The plates were incubated at room temperature for a further 30 minutes. The sulforodamine B was removed by overturning, the plates were washed three times by immersion in 1% acetic acid, and then dried first on blotting paper and then in the oven. 200 μl of Tris base 10 mM were then added to all wells and the plates were placed under stirring for at least 20 min.” left out, “nm. […]” for “nm.”

[12] = system: MCF-7 human breast carcinoma; assay: Cytotoxicity test (sulforodamine B), MCF-7; type: cell-based; details: Homo sapiens, MCF7, read-out: IC50 ± SE
Method: as §1, §2, §3, §4

[13] = system: LoVo human colon adenocarcinoma; assay: Cytotoxicity test (sulforodamine B), LoVo; type: cell-based; details: 24 h exposure, 48 h recovery, SRB
Method: as §1, §2
as §6, with “hours. At the end of this incubation period the culture medium was removed by overturning the plates and 200 μl/well of PBS and 50 μl of 80% cold trichloroacetic acid (TCA) were added. The plates were then incubated in ice.” for “hours.”

[14] = system: HCT 116 human colorectal carcinoma; assay: Cytotoxicity test (sulforodamine B), HCT 116; type: cell-based; details: Homo sapiens, HCT-116, read-out: IC50 ± SE
Method: as §1, §2, §3, §4

MeWo human melanoma = assay: Cytotoxicity test (sulforodamine B), MeWo; type: cell-based; details: Homo sapiens, read-out: IC50 ± SE
Method: as §1, §2, §3, §4

[15] = system: MES-SA human uterine sarcoma; assay: Cytotoxicity test (sulforodamine B), MES-SA; type: cell-based; details: Homo sapiens, MES-SA, read-out: IC50 ± SE
Method: as §1, §2, §3, §4

[16] = Cancer Res., 62:3408-3416, 2002; cited from earlier work

SMILES	blood pressure [1]	heart rate [1]	concentration inhibiting cell growth (cell growth)	IC50 [2]	% inhibition of tubulin polymerization [3]	IC50 [4]	IC50 [5]	IC50 [6]	IC50 [7]	IC50 [8]	IC50 [9]	IC50 [10]	IC50 [11]	IC50 [12]	IC50 [13]	IC50 [14]	IC50 (MeWo human melanoma)	IC50 [15]	side effects in Phase I study [16]
COc1ccc(/C=C\c2cc(OC)c(OC)c(OC)c2)cc1O [Combretastatin A4, Combretastatin A-4, reference compound]	significant increase in blood pressure	progressive decrease of heart rate	of the order of nanomoles	–	–	–	–	–	–	–	–	–	–	–	–	–	–	–	–
COc1cc(/C=C\c2cc(O)c3ccsc3c2)cc(OC)c1OC [ST2151, Cis-6-[2-(3,4,5-trimethoxy-phenyl)-vinyl]-benzo[b]thiophen-4-ol]	–	–	–	74 ± 2.9 nM	37.1%	52 ± 4.9 nM	70 ± 2 nM	49 ± 0.64 nM	900 ± 65 nM	85 ± 0.5 nM	87 ± 1 nM	120 ± 0.01 nM	490 ± 30 nM	66 ± 2.7 nM	360 ± 0.01 nM	84 ± 3.8 nM	68 ± 5 nM	86 ± 10 nM	–
COc1cc(/C=C\c2cc(O)c3ccoc3c2)cc(OC)c1OC [ST2179, Cis-6-[2-(3,4,5-trimethoxy-phenyl)-vinyl]-benzofuran-4-ol]	–	–	–	53 ± 1.3 nM	44.0%	40 ± 3.9 nM	50 ± 2 nM	–	990 ± 40 nM	44 ± 3.8 nM	49 ± 1 nM	100 ± 0.01 nM	93 ± 6 nM	38 ± 3 nM	490 ± 0.04 nM	54 ± 9 nM	71 ± 17 nM	40 ± 4 nM	–
COc1ccc(/C=C\c2cc(OC)c(OC)c(OC)c2)cc1OP(=O)(O)O [combretastatin A4-P]	–	–	–	–	–	–	–	–	–	–	–	–	–	–	–	–	–	–	episodes of dose-limiting toxicity, including cases of acute coronary syndrome
